Reference: PubChem BioAssay AID489006 (Sanford-Burnham Center for Chemical Genomics, 2010)
Active and inactive are the calls of the source. No rule for the calls is given here.

These compounds were tested on Jurkat NF-kB reporter, luminescence (assay: Jurkat NF-kB signaling inhibitors – cell-based, luminescence, selectivity assay for B-cell receptor NF-kB inhibitor project, dose response (AID 489006)).

IC50	Compound
> 80 µM (inactive)	CC(C)N1C(=O)S/C(=C/c2ccc3c(c2)n(C)c(=O)n3C)C1=O
> 80 µM (inactive)	COc1ccc(C(=O)Nc2nnc(SCC(=O)Nc3ccc(NC(C)=O)cc3)s2)c(OC)c1
9.39 µM	C#CCN(Cc1ccccc1)S(=O)(=O)C=C
33.1 µM (inactive)	CCOC(=O)N1CCN(CC(=O)Nc2ccc([N+](=O)[O-])cc2C(=O)Nc2ccccc2F)CC1
28.3 µM (inactive)	COc1ccccc1/C=C1\SC(=S)N(CCC(=O)NC2=NCCS2)C1=O
38.9 µM (inactive)	CCN(C(=O)CN1C(=O)NC(c2ccccc2)(c2ccc(C)c(C)c2)C1=O)C1CCCCC1 (centres undefined)
5.79 µM	CCC(C)(C)c1ccc(OCCCC[n+]2ccccc2)c(C(C)(C)CC)c1
> 80 µM (inactive)	CCn1c(=O)cc(OCC(=O)Nc2ccc(OC)c(OC)c2)c2ccccc21
> 80 µM (inactive)	Cc1cc(C)c(S(=O)(=O)NCc2ccncc2)c(C)c1
> 80 µM (inactive)	Cc1cc(C)cc(NC(=O)c2nnn(Cc3cc(C)ccc3C)c2N)c1
> 80 µM (inactive)	COc1ccc(/C=N/OCC(=O)NC(c2ccccc2)c2ccccc2)cc1OC
> 80 µM (inactive)	CCN(CC(=O)Nc1c(F)cccc1F)C(=O)c1cc(S(=O)(=O)N(C)C)ccc1N1CCCC1
1.17 µM	CC1=CC(C)(C)Nc2ccc(OC(=O)c3cccnc3)cc21
35.7 µM (inactive)	COc1ccc(-c2ccc(OC)c([C@H]3[C@H]4C=CC[C@@H](C)[C@@H]4C(=O)N3Cc3ccccc3)c2)cc1
7.32 µM	CC1=CC(C)(C)Nc2ccc(OC(=O)C(Cc3ccccc3)N3C(=O)c4ccccc4C3=O)cc21 (centres undefined)
1.85 µM	COc1ccc(OCc2cccc(C(=O)Nn3cc([N+](=O)[O-])cn3)c2)cc1
40 µM (inactive)	CC(C)c1[nH]nc2c1C(c1ccco1)C(C#N)=C(N)O2 (centres undefined)
> 80 µM (inactive)	CN(C)S(=O)(=O)c1ccc(NC(=O)N2CCN(c3ccccc3)CC2)cc1

IC50	Compound
> 80 µM (inactive)	COc1cc(OC)c(/C=N/NC(N)=S)cc1Br
> 80 µM (inactive)	Cc1cc(C)cc(OCc2nnc(SCC(=O)c3ccccc3)o2)c1
> 80 µM (inactive)	Cc1nc(Nc2c(Cl)cccc2Cl)sc1C(=O)Nc1ccccc1
43.4 µM (inactive)	Cc1ccc(-c2nn3c(C)nnc3c3ccccc23)cc1S(=O)(=O)N1CCN(CCO)CC1
> 80 µM (inactive)	COc1cc(C[C@@H]2C(=O)OC[C@H]2Cc2ccc(OC)c(OC)c2)ccc1O
12.2 µM	COc1ccc2nc(Sc3c([N+](=O)[O-])nc(C)n3Cc3ccccc3)[nH]c2c1
> 80 µM (inactive)	CCn1c(=O)cc(OCC(=O)N(C)C2CCCCC2)c2ccccc21
> 80 µM (inactive)	COc1ccc(NS(=O)(=O)c2ccc(-c3coc(C)n3)cc2)cc1OC
> 80 µM (inactive)	CCc1ccc(/C=C2/SC(=S)N(CCC(=O)Nc3cccc(C(=O)O)c3)C2=O)cc1
14.8 µM	O=C(Cc1cccc2ccccc12)Nc1ccc(-c2cc3ccccc3oc2=O)cc1
> 80 µM (inactive)	CC(=C/c1ccco1)/C=N/NC(=O)CSc1nnc(SCc2ccc(C)cc2)s1
> 80 µM (inactive)	CCN1C(=O)c2cccc3c(S(=O)(=O)N4CCC(C)CC4)ccc1c23
24.4 µM (inactive)	CCCN1C(=O)/C(=C/c2c(N3CCNC(=O)C3CC(=O)OCC)nc3c(C)cccn3c2=O)SC1=S (centres undefined)
> 80 µM (inactive)	Cc1ccc(-c2cn(-c3ccccc3)c3[n+]2CCCS3)cc1
> 80 µM (inactive)	Cn1nc(-c2ccc(Cl)cc2)c2cc(C(=O)N3CCCC3)sc21
> 80 µM (inactive)	Cc1ccccc1-c1cc(C(=O)Nc2sc(C(=O)OC(C)C)c(C)c2C#N)c2ccccc2n1
62.2 µM (inactive)	CC(=O)c1cccc(S(=O)(=O)Nc2cc(C(F)(F)F)ccc2N2CCOCC2)c1
> 80 µM (inactive)	CCC(C)N1C(=O)/C(=C/c2c(NCCCOC(C)C)nc3c(C)cccn3c2=O)SC1=S (centres undefined)

Further lines, the compound ahead of its results:

Compound	IC50
Cc1ccc(C(=O)CSc2nnc(COc3ccccc3)o2)cc1	> 80 µM (inactive)
O=C(CN1C(=O)c2ccccc2S1(=O)=O)c1ccc(Cl)cc1Cl	0.78 µM
COc1ccc(-c2ccc(OC)c([C@H]3[C@H]4C=CC[C@@H](C)[C@@H]4C(=O)N3Cc3ccccc3)c2)cc1C	> 80 µM (inactive)
CCOC(=O)C1CCN(c2ncnc3c2cnn3-c2ccc(Cl)cc2)CC1	0.39 µM
CCc1ccc(/C=C2\SC(=S)N(CCC(=O)NC3=NCCS3)C2=O)cc1	1.3 µM
COc1ccccc1/C=C1\SC(=S)N(CCC(=O)Nc2nnc(C)s2)C1=O	> 80 µM (inactive)
Cc1nn(C)c(C)c1CN(C)S(=O)(=O)c1ccc2ccccc2c1	> 80 µM (inactive)
COc1ccc(C(=O)Nc2cccc(NC(=O)c3ccc(OC)c(OC)c3)n2)cc1OC	9.7 µM
COc1ccc(/C=C2\SC(=S)N(CCC(=O)Nc3cccc(O)c3)C2=O)cc1	> 80 µM (inactive)
ClCc1nnc(-c2ccccc2)o1	10.5 µM
CC1(C)CC2CC(C)(CN2S(=O)(=O)c2ccc(C(=O)Nc3ccc(S(=O)(=O)N4CCOCC4)cc3)cc2)C1 (centres undefined)	> 80 µM (inactive)
Cc1nn(C(C)(C)C)c(C)c1/C=N/OC(=O)Nc1ccc(Cl)c(Cl)c1	0.208 µM
Cc1noc(C)c1CSc1nc2[nH]ncc2c(=O)n1-c1ccccc1	34.3 µM (inactive)
O=C(Nc1cccc(S(=O)(=O)Nc2ccc(Cl)cc2)c1)c1ccc(Cl)nc1	25.7 µM (inactive)
CCN(CC)C(=O)c1ccc(S(=O)(=O)Cc2ccc(C)cc2)c([N+](=O)[O-])c1	7.08 µM
CC(C)(C)c1ccc(-c2noc(CCC(=O)NCc3ccco3)n2)cc1	1.13 µM
CCCCCCn1c(-c2ccco2)nc2oc3cc(OC)ccc3c(=O)c2c1=O	> 80 µM (inactive)

Compound	IC50
COC(=O)c1[nH]c2ccc(C)cc2c1NC(=O)Nc1ccccc1OC	55.2 µM (inactive)
CCn1c(CN2CCN(c3ccc(Cl)cc3)CC2)nc2ccccc21	39.9 µM (inactive)
N#CC1=C(N)Oc2cc(Nc3ccccc3)ccc2C1c1ccncc1 (centres undefined)	60.6 µM (inactive)
CNC(=O)CSc1nc2nn(-c3ccccc3)c(=O)c-2c2n1CCCCC2	> 80 µM (inactive)
CC1=CC(C)(C)Nc2ccc(OC(=O)c3ccco3)cc21	1.4 µM
COc1cccc(-c2noc(CCC(=O)NCCc3ccccc3)n2)c1	29.8 µM (inactive)
CN(C)C(=O)CCc1nc(-c2ccc(C(C)(C)C)cc2)no1	> 80 µM (inactive)
CC(C)C(c1nnnn1Cc1ccccc1)N(Cc1ccco1)Cc1cccs1 (centres undefined)	73.6 µM (inactive)
COc1cc(OC)cc(-c2cc3nc(C)c(CCC(=O)Nc4nc(C)cs4)c(C)n3n2)c1	5.28 µM
O=C(CCCN1C(=O)/C(=C/c2ccccc2Cl)SC1=S)NNC(=O)c1ccc(Cl)cc1Cl	0.76 µM
O=C(CN1C(=O)c2ccccc2S1(=O)=O)c1ccccc1Cl	1.26 µM
CCCCn1c2c(c(=N)c3ccccc31)CCC2	> 80 µM (inactive)
Cc1ccc(C2(c3ccc(C)cc3)CC2C(=O)Nc2ccc([N+](=O)[O-])cc2O)cc1 (centres undefined)	50.1 µM (inactive)
COc1ccc(-c2nsc(SCC(=O)Nc3cc(C)on3)n2)cc1	> 80 µM (inactive)
COc1ccc(/C=C2/SC(=S)N(CCCC(=O)Nc3ccc(O)cc3)C2=O)cc1	> 80 µM (inactive)
CCN1C(=O)Nc2cccc3cccc1c23	36.2 µM (inactive)
